# Source: US7378437B2, “Drugs for diabetes” (NICOX S.A., priority 2000, dated 2008)
# Experiments:
# [1] = tested on: aorta of insulin-resistant rats; test: Vasorelaxing effect in vitro on isolated aorta of insulin-resistant (fructose-rich diet) rats, precontracted with phenylephrine, with or without LNNA; type: cell-based, rat; settings: for % Relaxation, Aorta with LNNA / % Relaxation, Aorta Without LNNA: phenylephrine 10 μM precontracted, percentage with respect to non insulin-resistant controls; for vasorelaxing effect in conditions of experimental diabetes (in words): aorta of insulin-resistant rats, in the presence and in absence of LNNA
# Method: To evaluate the strengthening effect of the drugs of the invention on the antidiabetic activity of insulin, animals (rats) are treated with a fructose rich diet (Am. J. Physiol. 275, R788-R792, 1998). In this way an insulinic resistance is induced in the animals.
# The pharmacological test is a test in vitro and consists in determining the vasorelaxing activity induced by the products of the invention, measured on an isolated vessel (aorta) taken from animals treated as above mentioned. The test in vitro is carried out both in the presence and in absence of LNNA (N-nitro-L-Arginine), which is an irreversible inhibitor of the nitric oxide synthethases, to verify if the vasorelaxing effect depends on the protective endogenous substances (nitric oxide).
# The capability of the compounds of the invention to exert a vasorelaxing effect both in the presence and in absence of vasoprotective substances in such conditions of experimental diabetes, (animals with a fructose rich diet, and treated with or without LNNA), is an index which allows to evaluate the antidiabetic action of the tested compound.
# In the pharmacological experiment isolated vessels are used, taken from rats which have developed, as said, an insulinic resistance condition induced by administering for 4 weeks a fructose rich diet.
# Male Sprague Dawley rats having an average weight equal to 150-200 g were sacrificed and bled. The abdomi-nal aorta was removed and suitably prepared for determining the myorelaxing activity in vitro according to the method described by Vogel G. H. et al., Drug Discovery Evaluation-Pharmacological Assays page 32, 1996.
# A part of the specimen is treated with LNNA.
# The tissues are precontracted with phenylephrine (10 μM) and the relaxation was determined in the presence or in absence of the compounds of the invention or of the reference standards. […] The results are reported in Table 1 and are expressed as a percentage with respect to the vasorelaxing effect measured in the controls.
SMILES,"% Relaxation, Aorta with LNNA ([1]; concentration 10^−5 M)","% Relaxation, Aorta Without LNNA ([1]; concentration 10^−5 M)",vasorelaxing effect in conditions of experimental diabetes (in words) [1],"% Relaxation, Aorta with LNNA ([1]; concentration 10^−4 M)","% Relaxation, Aorta Without LNNA ([1]; concentration 10^−4 M)",also measured
"CC(=O)Oc1ccccc1C(=O)Oc1ccc(CO[N+](=O)[O-])cc1 [Ex. 6, 2-(acetyloxy)benzoic acid 4-(nitroxymethyl) phenyl ester]",65%,90%,–,–,–,melting point: 86 to 88 °C
"CC(=O)Oc1ccccc1C(=O)OCc1cccc(CO[N+](=O)[O-])n1.Cl [Ex. 1, 2-acetoxybenzoic acid 6-(nitroxymethyl)-2-methylpyridinyl ester hydrochloride]",70%,93%,–,–,–,–
"COc1ccc2c(c1)c(CC(=O)Oc1cccc(CO[N+](=O)[O-])c1)c(C)n2C(=O)c1ccc(Cl)cc1 [Ex. 3 comp., 1-(4-chlorobenzoyl)-5-methoxy-2-methyl-3-indolacetic acid 3′-(nitroxymethyl)phenyl ester, reference compound]",–,–,did not result active,–,–,"% Relaxation, Aorta with LNNA ([1]; concentration 10^−6 M): 20%; % Relaxation, Aorta Without LNNA ([1]; concentration 10^−6 M): 20%"
"CN(C)C(=N)N=C(N)N [Metformin, reference compound]",–,–,active only in the absence of the inhibitor of the NO synthesis,30%,90%,–
"CC(=O)Oc1ccccc1C(=O)Oc1cccc(CO[N+](=O)[O-])c1 [Ex. 2, 3-nitrooxymethylphenyl ester of the 2-acetoxybenzoic acid]",–,–,–,70%,70%,–
